# Laboratory results: patent US10221160B2, “Metalloenzyme inhibitor compounds” (Mycovia Pharmaceuticals, Inc., priority 2012, dated 2019)
# System: C. albicans
# Assay: Minimum Inhibitory Concentration (MIC), CLSI M27-A2
# Format: cell-based
# Settings: Candida albicans, 48 h, about 50% growth reduction, approximately 48 h at 35 °C, read-out: Candida MIC
# Description: A. Minimum Inhibitory Concentration (MIC) Compounds were assessed for their ability to inhibit the growth of common strains of fungus, C. albicans using a standardized procedure (CLSI M27-A2). Stock solutions of the test compounds and standards were prepared in DMSO at 1,600 μg/mL (C. albicans). Eleven, serial, one-half dilutions of compounds were prepared in 96-well plates in RPMI+MOPS. The assay concentration ranges were 8-0.001 μg/mL (C. albicans). Cell suspensions of C. albicans were prepared and added to each well at concentrations of approximately 3.7×10^3 colony-forming-units per milliliter (cfu/mL). All testing was in duplicate. The inoculated plates were incubated for approximately 48 h at 35±1° C. At the completion of incubation the wells of each plate were evaluated visually for the presence of fungal growth. […] For QC purposes C. krusei isolate ATCC 6258 (4.0×10^3 cfu/mL) was included in the VOR assay.
row,Structure (SMILES),MIC [µg/mL]
1,"C[C@@H](c1ncncc1F)[C@](O)(Cn1cncn1)c1ccc(F)cc1F [Voriconazole, reference compound]",0.016
2,"N#Cc1ccc(-c2ccc(C(F)(F)C(O)(Cn3cnnn3)c3ccc(F)cc3F)nc2)cc1 (stereo not shown) [Example 1, 4-(6-(2-(2,4-Difluorophenyl)-1,1-difluoro-2-hydroxy-3-(1H-tetrazol-1-yl)propyl)pyridin-3-yl)benzonitrile]",≤ 0.016
3,"OC(Cn1cncn1)(Cn1cncn1)c1ccc(F)cc1F [Fluconazole, reference compound]",0.5

# Same assay, conditions: Candida albicans, rating scale, read-out: Candida MIC Rating
row,Structure (SMILES),MIC [µg/mL]
1,"OC(Cn1cncn1)(c1ccc(F)cc1F)C(F)(F)c1ccc(-c2ccc(OC(F)(F)F)cc2)cn1 (stereo not shown) [Example 18, 2-(2,4-Difluorophenyl)-1,1-difluoro-3-(1H-1,2,4-triazol-1-yl)-1-(5-(4-(trifluoromethoxy)phenyl)pyridin-2-yl) propan-2-ol]",< 0.5
2,"O=C(Nc1ccc(-c2ccc(C(F)(F)C(O)(Cn3cnnn3)c3ccc(F)cc3F)nc2)cc1)C(F)(F)F (stereo not shown) [Example 37, N-(4-(6-(2-(2,4-Difluorophenyl)-1,1-difluoro-2-hydroxy-3-(1H-tetrazol-1-yl)propyl)pyridin-3-yl)phenyl)-2,2,2-trifluoroacetamide]",< 0.5
3,"OC(Cn1cnnn1)(c1ccc(F)cc1F)C(F)(F)c1ccc(-c2ccc(SC(F)(F)F)cc2)cn1 (stereo not shown) [Example 27, 2-(2,4-Difluorophenyl)-1,1-difluoro-3-(1H-tetrazol-1-yl)-1-(5-(4-((trifluoromethyl)thio)phenyl)pyridin-2-yl)propan-2-ol]",< 0.5
4,OC(Cn1cnnn1)(c1ccc(F)cc1F)C(F)(F)c1ccc(-c2ccc(SC(F)F)cc2)cn1 (stereo not shown) [Example 40],< 0.5
5,OC(Cn1ncnn1)(c1ccc(F)cc1F)C(F)(F)c1ccc(-c2ccc(C(F)(F)F)cc2)cn1 (stereo not shown) [Example 22],1.5 to 4
6,"OC(Cn1cncn1)(c1ccc(F)cc1F)C(F)(F)c1ccc(-c2ccc(F)cc2)cn1 (stereo not shown) [Example 16, 2-(2,4-Difluorophenyl)-1,1-difluoro-1-(5-(4-fluorophenyl)pyridin-2-yl)-3-(1H-1,2,4-triazol-1-yl)propan-2-ol]",< 0.5
7,"O=[N+]([O-])c1ccc(-c2ccc(C(F)(F)C(O)(Cn3cnnn3)c3ccc(F)cc3F)nc2)cc1 (stereo not shown) [Example 32, 2-(2,4-Difluorophenyl)-1,1-difluoro-1-(5-(4-nitrophenyl)pyridin-2-yl)-3-(1H-tetrazol-1-yl)propan-2-ol]",< 0.5
8,"CCOC(=O)C(F)(F)Oc1ccc(-c2ccc(C(F)(F)C(O)(Cn3cnnn3)c3ccc(F)cc3F)nc2)cc1 (stereo not shown) [Example 43, Ethyl 2-(4-(6-(2-(2,4-difluorophenyl)-1,1-difluoro-2-hydroxy-3-(1H-tetrazol-1-yl)propyl)pyridin-3-yl)phenoxy)-2,2-difluoroacetate]",< 0.5
9,"N#Cc1ccc(-c2ccc(C(F)(F)C(O)(Cn3cnnn3)c3ccc(F)cc3F)nc2)cc1 (stereo not shown) [Example 1, 4-(6-(2-(2,4-Difluorophenyl)-1,1-difluoro-2-hydroxy-3-(1H-tetrazol-1-yl)propyl)pyridin-3-yl)benzonitrile]",< 0.5
10,"OC(Cn1cnnn1)(c1ccc(F)cc1F)C(F)(F)c1ccc(-c2ccc(SCC(F)(F)F)cc2)cn1 (stereo not shown) [Example 45, 2-(2,4-Difluorophenyl)-1,1-difluoro-3-(1H-tetrazol-1-yl)-1-(5-(4-((2,2,2-trifluoroethyl)thio)phenyl)pyridin-2-yl)propan-2-ol]",< 0.5
11,OC(Cn1ncnn1)(c1ccc(F)cc1F)C(F)(F)c1ccc(-c2cccc(F)c2)cn1 (stereo not shown) [Example 21],1.5 to 4

# Results, then the molecule that gave them:
row,MIC [µg/mL],Structure (SMILES)
1,< 0.5,"OC(Cn1cnnn1)(c1ccc(F)cc1F)C(F)(F)c1ccc(-c2cccc(OC(F)F)c2)cn1 (stereo not shown) [Example 26, 1-(5-(3-(Difluoromethoxy)phenyl)pyridin-2-yl)-2-(2,4-difluorophenyl)-1,1-difluoro-3-(1H-tetrazol-1-yl)propan-2-ol]"
2,< 0.5,"CC(C)c1cccc(-c2ccc(C(F)(F)C(O)(Cn3cnnn3)c3ccc(F)cc3F)nc2)c1 (stereo not shown) [Example 24, 2-(2,4-Difluorophenyl)-1,1-difluoro-1-(5-(3-isopropylphenyl)pyridin-2-yl)-3-(1H-tetrazol-1-yl)propan-2-ol]"
3,< 0.5,"OC(Cn1cnnn1)(c1ccc(F)cc1F)C(F)(F)c1ccc(-c2ccc(OC(F)(F)F)cc2)cn1 (stereo not shown) [Example 7, 2-(2,4-Difluorophenyl)-1,1-difluoro-3-(1H-tetrazol-1-yl)-1-(5-(4-(trifluoromethoxy)phenyl)pyridin-2-yl) propan-2-ol]"
4,< 0.5,"Oc1ccc(-c2ccc(C(F)(F)C(O)(Cn3cnnn3)c3ccc(F)cc3F)nc2)cc1 (stereo not shown) [Example 23, 4-(6-(2-(2,4-Difluorophenyl)-1,1-difluoro-2-hydroxy-3-(1H-tetrazol-1-yl)propyl)pyridin-3-yl)phenol]"
5,< 0.5,"OC(Cn1cnnn1)(c1ccc(F)cc1F)C(F)(F)c1ccc(-c2ccc(OCCC(F)(F)F)cc2)cn1 (stereo not shown) [Example 44, 2-(2,4-Difluorophenyl)-1,1-difluoro-3-(1H-tetrazol-1-yl)-1-(5-(4-(3,3,3-trifluoropropoxy)phenyl)pyridin-2-yl)propan-2-ol]"
6,< 0.5,"OC(Cn1cnnn1)(c1ccc(F)cc1F)C(F)(F)c1ccc(-c2cccc(OC(F)(F)F)c2)cn1 (stereo not shown) [Example 6, 2-(2,4-Difluorophenyl)-1,1-difluoro-3-(1H-tetrazol-1-yl)-1-(5-(3-(trifluoromethoxy)phenyl)pyridin-2-yl)propan-2-ol]"
7,< 0.5,"OC(Cn1cnnn1)(c1ccc(F)cc1F)C(F)(F)c1ccc(-c2ccccc2)cn1 (stereo not shown) [Example 35, 2-(2,4-Difluorophenyl)-1,1-difluoro-1-(5-phenylpyridin-2-yl)-3-(1H-tetrazol-1-yl)propan-2-ol]"
8,< 0.5,"CC(C)Oc1ccc(-c2ccc(C(F)(F)C(O)(Cn3cnnn3)c3ccc(F)cc3F)nc2)cc1 (stereo not shown) [Example 4, 2-(2,4-Difluorophenyl)-1,1-difluoro-1-(5-(4-isopropoxyphenyl)pyridin-2-yl)-3-(1H-tetrazol-1-yl)propan-2-ol]"
9,< 0.5,"OC(Cn1cnnn1)(c1ccc(F)cc1F)C(F)(F)c1ccc(-c2ccc(CC(F)(F)F)cc2)cn1 (stereo not shown) [Example 41, 2-(2,4-Difluorophenyl)-1,1-difluoro-3-(1H-tetrazol-1-yl)-1-(5-(4-(2,2,2-trifluoroethyl)phenyl)pyridin-2-yl)propan-2-ol]"
10,< 0.5,"OC(Cn1cnnn1)(c1ccc(F)cc1F)C(F)(F)c1ccc(-c2ccc(F)c(F)c2)cn1 (stereo not shown) [Example 25, 2-(2,4-Difluorophenyl)-1-(5-(3,4-difluorophenyl)pyridin-2-yl)-1,1-difluoro-3-(1H-tetrazol-1-yl)propan-2-ol]"
11,< 0.5,"OC(Cn1cnnn1)(c1ccc(F)cc1F)C(F)(F)c1ccc(-c2cccc(Cl)c2)cn1 (stereo not shown) [Example 8, 1-(5-(3-Chlorophenyl)pyridin-2-yl)-2-(2,4-difluorophenyl)-1,1-difluoro-3-(1H-tetrazol-1-yl)propan-2-ol]"
12,< 0.5,"N#Cc1cccc(-c2ccc(C(F)(F)C(O)(Cn3cnnn3)c3ccc(F)cc3F)nc2)c1 (stereo not shown) [Example 3, 3-(6-(2-(2,4-Difluorophenyl)-1,1-difluoro-2-hydroxy-3-(1H-tetrazol-1-yl)propyl)pyridin-3-yl)benzonitrile]"

# Same assay, conditions: Candida albicans, read-out: Candida MIC Rating
row,Structure (SMILES),MIC [µg/mL]
1,"OC(Cc1cc[nH]n1)(c1ccc(F)cc1F)C(F)(F)c1ccc(-c2ccc(OC(F)(F)F)cc2)cn1 (stereo not shown) [Example 15, 2-(2,4-Difluorophenyl)-1,1-difluoro-3-(1H-pyrazol-3-yl)-1-(5-(4-(trifluoromethoxy)phenyl)pyridin-2-yl)propan-2-ol]",< 0.5
2,"OC(Cn1cnnn1)(c1ccc(F)cc1F)C(F)(F)c1ccc(-c2ccc(OCC(F)(F)C(F)(F)F)cc2)cn1 (stereo not shown) [Example 12, 2-(2,4-Difluorophenyl)-1,1-difluoro-1-(5-(4-(2,2,3,3,3-pentafluoropropoxy)phenyl)pyridin-2-yl)-3-(1H-tetrazol-1-yl)propan-2-ol]",< 0.5

# Same assay, conditions: rating scale
row,Structure (SMILES),Candida MIC Rating
1,"CC(F)(c1ccc(-c2ccc(C(F)(F)F)cc2)cn1)C(O)(Cn1cnnn1)c1ccc(F)cc1F (stereo not shown) [Example 53, 2-(2,4-Difluorophenyl)-3-fluoro-1-(1H-tetrazol-1-yl)-3-(5-(4-(trifluoromethyl)phenyl)pyridin-2-yl)butan-2-ol]",B (>0.5-1.5)
2,"CC(F)(c1ccc(-c2ccc(C(F)(F)F)cc2)cn1)C(O)(Cn1cnnn1)c1ccc(F)cc1F (stereo not shown) [Example 52, 2-(2,4-Difluorophenyl)-3-fluoro-1-(1H-tetrazol-1-yl)-3-(5-(4-(trifluoromethyl)phenyl)pyridin-2-yl)butan-2-ol]",C (>1.5-4)
3,"CC(F)(c1ccc(-c2ccc(Cl)cc2)cn1)C(O)(Cn1cnnn1)c1ccc(F)cc1F (stereo not shown) [Example 55, 3-(5-(4-Chlorophenyl)pyridin-2-yl)-2-(2,4-difluorophenyl)-3-fluoro-1-(1H-tetrazol-1-yl)butan-2-ol]",A (≤0.5)

# Results, then the molecule that gave them:
row,Candida MIC Rating,Structure (SMILES)
1,A (≤0.5),"OC(Cn1cnnn1)(c1ccc(F)cc1F)C(F)(F)c1ccc(-c2ccc(OCC(F)(F)F)cc2)cn1 (stereo not shown) [Example 11, 2-(2,4-Difluorophenyl)-1,1-difluoro-3-(1H-tetrazol-1-yl)-1-(5-(4-(2,2,2-trifluoroethoxy)phenyl)pyridin-2-yl)propan-2-ol]"
2,C (>1.5-4),"CC(F)(c1ccc(-c2ccc(Cl)cc2)cn1)C(O)(Cn1cnnn1)c1ccc(F)cc1F (stereo not shown) [Example 54, 3-(5-(4-Chlorophenyl)pyridin-2-yl)-2-(2,4-difluorophenyl)-3-fluoro-1-(1H-tetrazol-1-yl)butan-2-ol]"
3,C (>1.5-4),"CC(F)(c1ccc(-c2ccc(OCC(F)(F)F)cc2)cn1)C(O)(Cn1cnnn1)c1ccc(F)cc1F (stereo not shown) [Example 56, 2-(2,4-Difluorophenyl)-3-fluoro-1-(1H-tetrazol-1-yl)-3-(5-(4-(2,2,2-trifluoroethoxy)phenyl)pyridin-2-yl)butan-2-ol]"
